Measurements as given in article PMC12040169 (PLOS Biology, 2025).

experiment: in vitro; details: human, hela cells, % viability

| SMILES | viability at 28.5 h, 10 µM [%] |
| --- | --- |
| COC(=O)c1ccc2c(c1)[n+](CCO)c(C)n2CCO [CBK262443C] | 88.1 |
| CNC(=O)c1ccc(NS(=O)(=O)c2ccc(OC(F)(F)F)cc2)cc1 [CBK043495] | 96.7 |
| COc1ccc(-c2ccc3c(c2)C(=O)N2CC[C@H](NC(=O)CCC(=O)O)[C@H]2C(=O)N3)cc1 [CBK289331] | 84.4 |
| Cc1ccc(OCCCC(=O)N2CCCc3c(cnn3C)C2)c(C)c1 [CBK285288] | 96.9 |
| COCOc1ccc(-c2ncc(OC)nc2NC(=O)COC)cc1 [CBK145216] | 92.7 |
| c1cncc(Nc2cccc(-c3cnc4ccccc4c3)n2)c1 [CBK037638] | 98.8 |
| COC(=O)Nc1ccc(S(=O)(=O)N2CCCC(C(=O)Nc3ccc4c(c3)OCO4)C2)cc1 (centres unmarked) [CBK265361] | 89.8 |
| Cc1ccc(S(=O)(=O)N2Cc3ccccc3CC2C(=O)Nc2sc3c(c2C#N)CCCC3)cc1 (centres unmarked) [CBK266313] | 97.9 |
| O=C(NC1CCCC1)c1ccc2ncccc2c1 [CBK200118] | 90.2 |
| O=C(CN1CCOCC1)NCCNc1c(Cl)c(Cl)c(Cl)c(Cl)c1Cl [CBK266851] | 84.7 |
| O=C(O)Cn1c(=O)[nH]c2c(-c3ccccc3)c[nH]c2c1=O [CBK287218] | 87.2 |
| CCN1CCN(C(=S)c2ccc(OCC(N)=O)c(OC)c2)CC1 [CBK269293] | 86.1 |
| Cc1ccc2c(c1)cc(C(=O)N1CCOC(C(=O)N3CCc4ccccc4C3)C1)n2C (centres unmarked) [CBK286035] | 93.8 |
| CN(CC1CCCN(C(=O)Nc2cccc(Cl)c2)C1)C(=O)OC(C)(C)C (centres unmarked) [CBK305597] | 94.2 |
| O=C(CSc1nsc(SCC(=O)c2ccccc2)n1)c1ccccc1 [CBK264142] | 120 |
| CN1CCC(C(=O)N2CCN(c3ncccn3)CC2)CC1 [CBK144511] | 102 |
| COc1cc(C(=O)NC(C)C(=O)NN)cc(OC)c1OC (centres unmarked) [CBK262609] | 106 |
| Cc1ccc(C(=O)O)cc1NC(=S)NC1CC1 [CBK288397] | 94.4 |
| Cc1cc(SCc2ccc(Cl)cc2)nc(=O)[nH]1 [CBK287719] | 90.8 |
| Cc1c(Cl)cc(C(C)C)c(O)c1CNC(=O)CSc1nnc(-c2cccs2)n1C [CBK267416] | 94.6 |
| Cc1ccc(Nc2nc(N/N=C/c3cccc4ccccc34)nc(N3CCC(Cc4ccccc4)CC3)n2)cc1 [CBK262101] | 94.7 |
| O=C(N[C@H]1CCN2C(=O)[C@@H](Cc3ccccc3)NC(=O)[C@H]12)c1cnccn1 [CBK289231] | 83.6 |
| Cc1cc(CNC(=O)CCn2ccc(C)n2)on1 [CBK281485] | 97.3 |

| SMILES | viability at 28.5 h, 10 µM [%] |
| --- | --- |
| O=C(c1ccco1)N1CCN(S(=O)(=O)c2ccc3c(c2)C(=NO)c2cc(S(=O)(=O)N4CCN(C(=O)c5ccco5)CC4)ccc2-3)CC1 [CBK262103] | 104 |
| COCCc1nc(C2CCN(C)CC2)n(Cc2ccccc2C)n1 [CBK307449] | 115 |
| Ic1cnn(Cc2nc(-c3ccc4c(c3)OCO4)no2)c1 [CBK270050] | 106 |
| O=C(NCc1ccccc1)C1(c2ccccc2)CCCC1 [CBK149540] | 111 |
| Cc1cc2ccccc2n2c(SCC(=O)NCc3ccco3)nnc12 [CBK265666] | 107 |
| O=c1[nH]c(=O)c2cc(S(=O)(=O)NCC3(c4ccccc4)CCCC3)ccc2[nH]1 [CBK286387] | 112 |
| CC(=O)N1C[C@@H](c2cccc(C)c2)[C@@H]2CN(Cc3ccncc3)CC[C@@H]21 [CBK283370] | 96.1 |
| CCCS(=O)(=O)NC1CC(C)(C)Cc2c1cnn2-c1ccccc1 (centres unmarked) [CBK307265] | 98.1 |
| C[C@@H]1CN(C(=O)OCc2nccn2C)C[C@H](C)O1 [CBK200142] | 103 |
| COc1ccc(CN(CCN(C)C)C(=O)NCc2ccc(Cl)cc2)cc1OC [CBK159303] | 87.7 |
| COc1ccc(C(=O)Nc2nc3ccc(NC(C)=O)cc3s2)cc1OC [CBK287311] | 101 |
| O=C(O)c1cc(NS(=O)(=O)c2ccc(N3CCCCC3)c([N+](=O)[O-])c2)cc(C(=O)O)c1 [CBK263876] | 101 |
| COc1ccc(CNC(=O)[C@H]2C=CCN2C(=O)c2ccco2)cc1 [CBK284321] | 71.9 |
| Cc1ccc(Cn2cnc3c(nnn3-c3ccc(C)cc3)c2=O)cc1 [CBK287502] | 102 |
| O=C(O)c1cc(-c2ccc(F)cc2)n[nH]1 [CBK267848] | 96.1 |
| Cc1ccc(S(=O)(=O)OC[C@H]2O[C@@H](n3ccc(=O)[nH]c3=O)C[C@H]2O)cc1 [CBK201283] | 95.7 |
| Cc1cc(Sc2ncnc(N)c2[N+](=O)[O-])ncn1 [CBK267235] | 36.7 |
| O=C(CSc1nnc2ccc(-c3ccccc3)nn12)Nc1ccc(F)cc1 [CBK287676] | 91.5 |
| COc1ccc(C(=O)C2=C(O)C(=O)N(Cc3cccnc3)C2c2ccc(N(C)C)cc2)cc1 (centres unmarked) [CBK264635] | 85.9 |
| CCCNc1nc(-c2ccc(F)c(F)c2)cn2ccnc12 [CBK066573] | 94.8 |
| Sc1nccn1Cc1cccs1 [CBK008454] | 92 |
| CS(=O)(=O)N1CCN(c2nc(C(F)(F)F)nc3ccsc23)CC1 [CBK304594] | 91.1 |
| Cc1ccc2c(CC(=O)N(C)CCc3cn[nH]c3)coc2c1 [CBK283239] | 90.8 |

| SMILES | viability at 28.5 h, 10 µM [%] |
| --- | --- |
| COc1ccc(Cl)cc1N1CCN(Cc2cc(OC)c(OC)c(OC)c2)CC1 [CBK126406] | 43.3 |
| Cc1nc(-c2cccnc2)[nH]c(=O)c1CCC(=O)N1CCNC(C)C1 (centres unmarked) [CBK304163] | 102 |
| C[C@@H]1CN(c2ccc(C(F)(F)F)c(OCc3ccccc3)n2)CCN1 [CBK003987A] | 94 |
| Cc1ccc2c(c1)C(=O)CC1(CCN(C(=O)C3CCCC3)CC1)O2 [CBK283718] | 85 |
| Cc1oc(NC(=O)CN2CCN(c3ncccn3)CC2)c(C#N)c1C [CBK305569] | 94.6 |
| Cc1[nH]c2c(C(=O)NCCCC3CCOC3)cccc2c1C (centres unmarked) [CBK282551] | 84.1 |
| CN1CCC(N2CCN(C(=O)c3ccccc3Nc3cccc(C(F)(F)F)c3)CC2)CC1 [CBK149097] | 88.7 |
| CN(C)CCN(C)C(=O)c1cc2cc(OC(F)(F)F)ccc2[nH]1 [CBK107316] | 91.5 |
| CC(C)CNC(=O)C(=O)NCCc1ccc(F)cc1 [CBK264903] | 105 |
| Cc1ccc(C(=O)COC(=O)c2cc(O)nc3ccccc23)cc1[N+](=O)[O-] [CBK264085] | 98.8 |
| O=C(NCCc1c[nH]c2ccc(Cl)cc12)c1ccc(Br)cc1Cl [CBK159762] | 89.1 |
| COC(=O)c1ccc(NS(=O)(=O)c2ccc(C)c(C(=O)O)c2)c(C)c1 [CBK296684] | 105 |
| CCCCc1nccn1CCn1ccnc1CCCC [CBK020437] | 88.7 |
| CSc1ncc(CNC(=O)Nc2ccc3c(c2)CCC3)n1C [CBK306996] | 107 |
| NC(=O)c1cc(C(=O)c2ccccc2F)c[nH]1 [CBK017284] | 112 |
| CC(C)c1ccc(/C=C/C(=O)N[C@H]2CC[C@H](O)CC2)cc1 [CBK149644] | 106 |
| O=C(Nc1ncn(CC(=O)N2CCCCCC2)n1)c1cccc(F)c1 [CBK304904] | 87.5 |
| CS(=O)(=O)c1ccc(-c2ccc(N)c3ccccc23)cc1 [CBK084326] | 95.4 |
| Cc1cc(NC(=O)c2c(F)cccc2F)nc2c1c(=O)oc1ccccc12 [CBK291115] | 110 |
| Cc1noc(C)c1C(=O)N1CCOCC1 [CBK057765] | 80.5 |
| O=C(c1ccc(-c2ccccc2)cc1)c1no[n+]([O-])c1C(=O)c1ccc(-c2ccccc2)cc1 [CBK261754] | 106 |
| O=C(Cn1c(C2CCCNC2)cc2cccnc21)N1CCCC1 (centres unmarked) [CBK285060] | 94.4 |
| Cc1csc2ncc(C(=O)Nc3ccc(F)c(Cl)c3)c(=O)n12 [CBK287460] | 107 |

| SMILES | viability at 28.5 h, 10 µM [%] |
| --- | --- |
| O=c1oc2ccccc2c2nc(-c3ccncc3)ncc12 [CBK288536] | 108 |
| COC(=O)c1ccc(S(=O)(=O)N2CCC(C)CC2)cc1 [CBK070414] | 98.1 |
| Cc1nc2ccccn2c1-c1csc(Nc2ccc(C(=O)O)cc2)n1 [CBK261634B] | 74.4 |
| CCOC(=O)C1CCCN(C(=O)Nc2cc(C)on2)C1 (centres unmarked) [CBK305661] | 81.8 |
| CN(C)C(=O)c1ccc(-c2ccc3c(c2)COC(C2CCN(C(=O)CC(C)(C)c4ccccc4)CC2)O3)cc1 (centres unmarked) [CBK149765] | 107 |
| CC(C)CN1CCOC(CNC(=O)c2cc(O)nc3ccccc23)C1 (centres unmarked) [CBK297931] | 80.6 |
| Cn1ccnc1C1(O)CC2CCC(C1)N2C(=O)c1ccc(F)cc1 (centres unmarked) [CBK284086] | 98.4 |
| O=C(N/N=C/c1ccc(N2N=C(c3ccc(Cl)cc3)CC2c2ccc(Cl)cc2)cc1)c1cccnc1 (centres unmarked) [CBK262494] | 103 |
| O=C(c1cncnc1)N1CCC(Cn2cncn2)(C2CCCCC2)CC1 [CBK136823] | 92.7 |
| CN(C)CCNC(=O)Cn1c(-c2cccs2)cc2cccnc21 [CBK282555] | 92.6 |
| CCCCOc1ccc(C(N)CC(=O)O)cc1 (centres unmarked) [CBK262915] | 86.8 |
| CC(C)CCCC(C)NC(=O)COc1cc(C(=O)O)cc(C(=O)O)c1 (centres unmarked) [CBK296646] | 86.8 |
| CCNc1cc(-c2cncc(OC)c2)ncn1 [CBK090881] | 101 |
| CN1CCCN(c2cncc(-c3ccc(F)c(Cl)c3)n2)CC1 [CBK065297] | 96.4 |
| Cc1ccc(C(=O)NCCN2CCOCC2)c(NCCCn2ccnc2)n1 [CBK076371] | 115 |
| CCc1nc(CN(C(C)=O)C2CCN(CCc3ccccn3)C2)no1 (centres unmarked) [CBK305372] | 96.7 |
| CC(=O)N(Cc1ccccc1)C1CCCc2c1[nH]c1ccc(C)cc21 (centres unmarked) [CBK261810] | 98 |
| CCNc1cc(-c2ccc(Cl)cc2)ncn1 [CBK090880] | 99 |
| CCOc1ccc(NC(=O)N(Cc2ccccn2)CC2CCCO2)cc1 (centres unmarked) [CBK306847] | 83.7 |
| COCCn1c(C)cc(C(=O)CSc2cc(C)c3ccccc3n2)c1C [CBK266437] | 70.3 |
